Measured values: paper PMC12030627, “Radioiodinated Bicyclic RGD Peptide Derivatives for Enhanced Tumor Accumulation” (Pharmaceuticals, 2025)
“And” between values parts separate entries of the source, which are not always exact repeats. Equal values may be shown once. Starred links: 1 amine or outer side, 2 acyl side, 3 side chain; linkers in the order of their positions; H or OH if unused. Positions of bridges follow the written chain, without caps; N, C: chain ends. Non-standard residues stand in square brackets, D forms with d. Residues, ends and D or L forms follow the SMILES beside them. *: point of attachment. Butanoyl(4-(4-I-phenyl)) = O=C(CCCc1ccc(I)cc1)*; TBMB = c1c(C[*:1])cc(C[*:3])cc1C[*:2]; Palmitoyl = CCCCCCCCCCCCCCCC(=O)*; Benzoyl(3-I) = O=C(c1cccc(I)c1)*; 4Abz = Nc1ccc(C(=O)O)cc1

Key:
[1] = biological target: T1, His-tagged integrin αVβ5 (Homo sapiens, UniProt P06756+P18084); experiment: In vitro selectivity assay, His-tag Dynabeads pulldown, integrin αVβ5; assay type: binding; conditions: cyclo-(RGDfK) 25 μM blocking; 2 h incubation at 37 °C
T1 construct: purchased R&D Systems 2528-AV
Method: Binding assays were conducted following our previously reported method, using the Dynabeads™ His-Tag Isolation and Pulldown protocol (Thermo Fisher Scientific, Tokyo, Japan). Briefly, [^125I]bcRGDpal or [^125I]bcRGDiba (10 kBq/sample) was incubated at 37 °C for 2 h in 200 μL of incubation buffer (3.25 mM sodium phosphate, 70 mM NaCl, 0.01% Tween 20, pH 7.4) with 10 pmol of His-tagged integrin αVβ3, αVβ5, or α5β1 proteins (αVβ3: IT3-H52E3, ACRO Biosystems, Newark, DE, USA; αVβ5: 2528-AV, R&D Systems, Minneapolis, MN, USA; α5β1: CT014-H2508H, Sino Biological, Beijing, China). For the inhibition group, cyclo(RGDfK) (25 μM, S7834, Selleck, Houston, TX, USA) was preincubated with the integrin protein for 30 min at 37 °C. Next, A 2× binding buffer (100 mM sodium phosphate, 600 mM NaCl, 0.01% Tween 20, pH 8.0) was mixed with the solution at a 1:1 volume ratio and incubated with 5 μL of magnetic beads at 37 °C for 10 min to enable protein immobilization. Following immobilization, the beads were rinsed three times with the binding buffer, and radioactivity was measured using a NaI well-type scintillation counter (2480 Wizard2; PerkinElmer Japan, Yokohama, Japan). Protein binding was expressed as %dose/nmol protein.

[2] = Octanol–water distribution coefficient (log D); assay type: physicochemical; conditions: shake-flask 1-octanol/PBS(–) pH 7.4, 1.0 mL each (1:1), 40 kBq, vortexed 2 min, centrifuged 5000 rpm 5 min, radioactivity by γ-counter, mean of n = 4
Method: For log D determination, [^125I]bcRGD, [^125I]bcRGDpal, [^125I]bcRGDiba, or [^125I]bcRGDdimer (40 kBq) was dissolved in 1.0 mL PBS(–) (pH 7.4) and mixed with 1.0 mL 1-octanol (1:1, v/v). The mixture was vortexed for 2 min and centrifuged at 5000 rpm for 5 min. Radioactivity in 0.5 mL of each phase was measured using a γ-counter, and log D values were calculated based on the radioactivity distribution (n = 4).

[3] = Albumin binding, size-exclusion spin column elution after incubation with mouse plasma; assay type: in vitro ADME; conditions: 37 kBq in 50 μL PBS(–) incubated 37 °C 10 min with 200 μL mouse plasma (male ddY); Sephadex G-50 Fine spin column, 2000 rpm 2 min; γ-counter; eluted/added radioactivity × 100
Method: (§1) To assess albumin binding, mouse plasma was obtained by centrifugation of whole blood from male ddY mice (9 weeks old). [^125I]bcRGD, [^125I]bcRGDpal, [^125I]bcRGDiba, or [^125I]bcRGDdimer (37 kBq) in 50 μL PBS(–) was incubated at 37 °C for 10 min with 200 μL of PBS(–), mouse plasma, or human serum albumin (HSA, 45 mg/mL in PBS(–); Wako Pure Chemical Industries, Osaka, Japan). The mixtures were applied to gel filtration spin columns (Sephadex G-50 Fine; Cytiva, Tokyo, Japan), centrifuged (2000 rpm, 2 min), and radioactivity in the eluted fraction was measured with a γ-counter. The high molecular weight fraction was calculated as the elution ratio = (radioactivity in elution)/(added radioactivity) × 100 (%).

[4] = biological target: T2, human serum albumin (HSA) (Homo sapiens, UniProt P02768); experiment: Albumin binding, size-exclusion spin column elution after incubation with HSA; assay type: in vitro ADME; conditions: 37 kBq in 50 μL PBS(–) incubated 37 °C 10 min with 200 μL HSA 45 mg/mL in PBS(–); Sephadex G-50 Fine spin column, 2000 rpm 2 min; γ-counter; eluted/added radioactivity × 100
T2 construct: purchased Wako Pure Chemical Industries
Method: as §1

T2 sequence (P02768 25-609): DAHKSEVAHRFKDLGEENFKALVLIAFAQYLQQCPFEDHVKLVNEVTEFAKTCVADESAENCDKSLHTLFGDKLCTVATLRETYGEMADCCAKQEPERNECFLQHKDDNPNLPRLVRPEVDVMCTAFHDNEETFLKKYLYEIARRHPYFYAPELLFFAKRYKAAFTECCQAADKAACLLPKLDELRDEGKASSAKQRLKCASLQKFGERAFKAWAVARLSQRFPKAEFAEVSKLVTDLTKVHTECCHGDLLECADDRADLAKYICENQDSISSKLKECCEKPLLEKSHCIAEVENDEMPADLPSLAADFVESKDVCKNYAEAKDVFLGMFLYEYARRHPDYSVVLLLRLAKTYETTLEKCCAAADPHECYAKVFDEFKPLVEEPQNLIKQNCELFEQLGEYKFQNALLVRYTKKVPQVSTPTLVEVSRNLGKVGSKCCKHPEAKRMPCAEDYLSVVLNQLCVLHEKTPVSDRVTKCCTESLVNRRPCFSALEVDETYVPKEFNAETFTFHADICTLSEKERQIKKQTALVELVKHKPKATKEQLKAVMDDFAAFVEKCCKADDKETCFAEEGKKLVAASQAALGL
T1 sequence (P06756 31-992 limits assumed): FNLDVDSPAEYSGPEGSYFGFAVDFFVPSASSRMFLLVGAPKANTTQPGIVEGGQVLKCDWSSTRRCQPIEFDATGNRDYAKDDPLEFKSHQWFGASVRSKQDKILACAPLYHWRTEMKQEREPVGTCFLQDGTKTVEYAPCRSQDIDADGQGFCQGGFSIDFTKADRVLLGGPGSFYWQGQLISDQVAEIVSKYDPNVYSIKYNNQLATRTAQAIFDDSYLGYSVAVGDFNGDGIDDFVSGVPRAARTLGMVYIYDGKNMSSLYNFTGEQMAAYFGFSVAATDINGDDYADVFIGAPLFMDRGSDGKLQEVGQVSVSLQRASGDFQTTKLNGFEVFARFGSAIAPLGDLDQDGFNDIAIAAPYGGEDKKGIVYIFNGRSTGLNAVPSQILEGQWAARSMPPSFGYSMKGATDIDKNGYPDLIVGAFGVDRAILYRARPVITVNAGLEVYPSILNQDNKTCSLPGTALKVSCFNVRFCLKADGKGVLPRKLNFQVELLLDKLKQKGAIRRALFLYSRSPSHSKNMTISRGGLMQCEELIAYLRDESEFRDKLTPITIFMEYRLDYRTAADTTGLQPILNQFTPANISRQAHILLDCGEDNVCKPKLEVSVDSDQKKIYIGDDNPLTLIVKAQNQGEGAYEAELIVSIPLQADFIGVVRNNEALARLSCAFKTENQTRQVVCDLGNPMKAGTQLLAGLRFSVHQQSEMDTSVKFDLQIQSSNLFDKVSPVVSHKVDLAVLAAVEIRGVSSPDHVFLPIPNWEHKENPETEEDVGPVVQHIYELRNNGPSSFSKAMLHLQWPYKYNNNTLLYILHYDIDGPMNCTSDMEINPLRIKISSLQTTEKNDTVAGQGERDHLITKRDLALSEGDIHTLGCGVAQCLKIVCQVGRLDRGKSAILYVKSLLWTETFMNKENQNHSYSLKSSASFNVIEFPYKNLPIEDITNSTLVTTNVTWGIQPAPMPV
T1 sequence (P18084 24-719 limits assumed): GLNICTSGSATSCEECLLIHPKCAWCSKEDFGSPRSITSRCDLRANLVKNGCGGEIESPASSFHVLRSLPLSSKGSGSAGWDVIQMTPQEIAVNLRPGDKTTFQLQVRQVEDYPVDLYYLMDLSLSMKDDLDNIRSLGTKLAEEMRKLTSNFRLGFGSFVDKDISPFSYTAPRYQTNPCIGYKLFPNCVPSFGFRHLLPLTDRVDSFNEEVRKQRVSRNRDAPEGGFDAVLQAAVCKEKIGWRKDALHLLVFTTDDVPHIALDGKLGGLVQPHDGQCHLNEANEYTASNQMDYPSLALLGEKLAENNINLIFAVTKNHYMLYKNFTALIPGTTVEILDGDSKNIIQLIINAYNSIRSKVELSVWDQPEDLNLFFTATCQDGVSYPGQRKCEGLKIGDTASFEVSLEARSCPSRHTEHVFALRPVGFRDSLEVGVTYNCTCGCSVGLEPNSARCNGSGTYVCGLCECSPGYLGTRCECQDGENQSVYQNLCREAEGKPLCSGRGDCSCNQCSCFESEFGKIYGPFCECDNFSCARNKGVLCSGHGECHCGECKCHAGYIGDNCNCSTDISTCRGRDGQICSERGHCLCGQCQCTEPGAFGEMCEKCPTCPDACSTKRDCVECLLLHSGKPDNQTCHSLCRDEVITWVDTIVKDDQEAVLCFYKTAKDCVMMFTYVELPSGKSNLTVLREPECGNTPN

SMILES | Radioactivity accumulation in αVβ5 protein, treatment versus inhibitor group [1] | logD [2] | Elution rate from size-exclusion resin (high molecular weight fraction), mouse plasma [3] [%] | Elution rate from size-exclusion resin (high molecular weight fraction), HSA [4] [%]
N=C(N)NCCC[C@@H]1NC(=O)[C@H]2CSCc3cc(cc(c3)CSC[C@H](C(N)=O)NC(=O)[C@H](CC(=O)O)NC(=O)CNC1=O)CSC[C@H](NC(=O)CNC(=O)[C@H](CO)NC(=O)c1ccc(NC(=O)CNC(=O)[C@H](CO)NC(=O)[C@@H]3CCCN3C(=O)[C@@H]3CCCN3C(=O)[C@@H]3CCCN3C(=O)[C@H](CCCCNC(=O)c3cccc(I)c3)NC(=O)CCCc3ccc(I)cc3)cc1)C(=O)N[C@@H](Cc1c[nH]cn1)C(=O)N1CCC[C@H]1C(=O)N[C@@H](CCC(N)=O)C(=O)N2 [[^125I]bcRGDiba] ({Butanoyl(4-(4-I-phenyl))}-K(Benzoyl(3-I))PPPSG[4Abz]SGCHPQ[dC]RGD[dC]-NH2; linker 10-14-18 via TBMB) | No differences | -0.97 | > 80 | 60
N=C(N)NCCC[C@@H]1NC(=O)[C@H]2CSCc3cc(cc(c3)CSC[C@H](C(N)=O)NC(=O)[C@H](CC(=O)O)NC(=O)CNC1=O)CSC[C@H](NC(=O)CNC(=O)[C@H](CO)NC(=O)c1ccc(NC(=O)CNC(=O)[C@H](CO)NC(=O)[C@@H]3CCCN3C(=O)[C@@H]3CCCN3C(=O)[C@@H]3CCCN3C(=O)CCc3cn(CC[C@H](NC(=O)CCNC(=O)c4cccc(I)c4)C(=O)N4CCC[C@H]4C(=O)N4CCC[C@H]4C(=O)N4CCC[C@H]4C(=O)N[C@@H](CO)C(=O)NCC(=O)Nc4ccc(C(=O)N[C@@H](CO)C(=O)NCC(=O)N[C@H]5CSCc6cc7cc(c6)CSC[C@@H](NC(=O)[C@H](CCC(N)=O)NC(=O)[C@@H]6CCCN6C(=O)[C@H](Cc6c[nH]cn6)NC5=O)C(=O)N[C@@H](CCCNC(=N)N)C(=O)NCC(=O)N[C@@H](CC(=O)O)C(=O)N[C@@H](C(N)=O)CSC7)cc4)nn3)cc1)C(=O)N[C@@H](Cc1c[nH]cn1)C(=O)N1CCC[C@H]1C(=O)N[C@@H](CCC(N)=O)C(=O)N2 [[^125I]bcRGDdimer] | – | -1.98 | 22 | 6
CCCCCCCCCCCCCCCC(=O)N[C@@H](CCCCNC(=O)c1cccc(I)c1)C(=O)N1CCC[C@H]1C(=O)N1CCC[C@H]1C(=O)N1CCC[C@H]1C(=O)N[C@@H](CO)C(=O)NCC(=O)Nc1ccc(C(=O)N[C@@H](CO)C(=O)NCC(=O)N[C@H]2CSCc3cc4cc(c3)CSC[C@@H](NC(=O)[C@H](CCC(N)=O)NC(=O)[C@@H]3CCCN3C(=O)[C@H](Cc3c[nH]cn3)NC2=O)C(=O)N[C@@H](CCCNC(=N)N)C(=O)NCC(=O)N[C@@H](CC(=O)O)C(=O)N[C@@H](C(N)=O)CSC4)cc1 [[^125I]bcRGDpal] (Palmitoyl-K(Benzoyl(3-I))PPPSG[4Abz]SGCHPQ[dC]RGD[dC]-NH2; linker 10-14-18 via TBMB) | No differences | 1.71 and > 1 | > 80 | 80
